Results reported in a melting point compilation (Tetko et al.; mined from patent text by program, amines drawn as free bases though some values may be those of a salt).

Row | SMILES | melting point
1 | CC(=O)NC1CCCc2sc(C(C)=O)cc21 (stereo not given) | 168 to 172 °C
2 | CN1CCC(Nc2nccc(Oc3ccc(NC(=O)c4cc(F)cc(N5CCOCC5)c4)c4ccccc34)n2)CC1 | 128 to 129 °C
3 | Cc1ccc(S(=O)(=O)c2c(N)c3nccn3c3nccnc23)cc1 | 294 to 295 °C
4 | CCOCCOc1ccc(COc2cnn(C(C)(C)C)c(=O)c2Cl)cc1 | 82 to 83 °C
5 | CCCCc1c2c(nc3c1CCc1cc4nc(C#N)c(N)cc4nc1-3)C(=O)CCC2 | > 300 °C
6 | CCOC(=O)c1cn(-c2nc(NC(C)(C)C)c(F)cc2F)c2c(F)c(F)c(F)cc2c1=O | 174 to 178 °C
7 | CCCC(=O)c1c[nH]c2c(C(=O)OC)cccc2c1=O | 151 to 153 °C
8 | COC(=O)CN(C)C(=O)CC(Cc1cccc2ccccc12)C(=O)NC(Cc1c[nH]cn1)C(=O)NC(CC(C)C)C(O)C(=O)OC (mixture of isomers) | 75 to 79 °C
9 | CCSC1(SCC)C(O)CC2C3CCC4=CC(=O)C=CC4(C)C3(F)C(OC(C)=O)CC21C (stereo not given) | 181 to 182 °C
10 | CNC(=O)N1CC(Oc2cccc(Br)c2)C1 | 134 to 135 °C
11 | COc1nc(CO)c(CO)n1C | 110 to 119 °C
12 | CC1(CN2CCN(c3nc4ccccc4o3)CC2)Cn2cc([N+](=O)[O-])nc2O1 (stereo not given) | 228 to 230 °C
13 | CCn1c(=O)n(C)c(=O)n(-c2cc(C(=O)OC)c(Cl)cc2F)c1=O | 48 to 49 °C
14 | COc1ccccc1-n1ccc(=O)c(-c2ccnn2-c2ccccc2)n1 | 153 to 154 °C
15 | N#CSCC(=O)c1ccccc1 | 75 to 77 °C
16 | CC1(C)NCC(O)(c2ccccc2)CN1 | 108 °C
17 | CC(C)C[C@H](NC(=O)OCC1CCCCCC1)C(=O)N[C@@H](Cc1ccccc1)C(=O)CSCc1ccco1 | 77 to 79 °C
18 | CNC=Nc1ccc(-c2c[nH]cn2)cc1 | 189 to 190 °C
19 | COc1cccc(SCCC(=O)O)c1 | 39 to 42 °C
20 | COCCOCc1c(F)cccc1-c1ccc2nc(-c3ccc(Cl)cc3)cn2c1 | 104 to 105 °C
21 | COc1cc(NC(=O)c2ccc(-c3ccncc3)cc2)cc(N2CCN(C)CC2)c1OC | 219 to 221 °C
22 | CCCCN1CCC(NS(=O)(=O)c2ccc(Nc3ccnc4cc(Cl)ccc34)cc2)CC1 | 190 to 191 °C
23 | CN1CCC(=C2c3cc(CO)n(C)c3CCn3ccnc32)CC1 | 214 °C
24 | O=C(O)c1cn(C2CC2)c2c(F)c(F)c(Cl)cc2c1=O | 200 to 204 °C
25 | CC(=O)OCCC1CCc2cccc3c(C4=C(c5cn(C)c6ccccc56)C(=O)OC4=O)cn1c23 (stereo not given) | 143 to 146 °C

Row | SMILES | melting point
26 | N#Cc1nc(SCc2cnn(-c3c(Cl)cc(C(F)(F)F)cc3Cl)n2)n(Cc2ccccc2)c1C#N | 132 °C
27 | CCCOc1ccccc1-c1cc(C)c(C#N)c(=O)[nH]1 | 180 °C
28 | CC(C)(C)CC(=O)N[C@H]1CC[C@H](CCN2CCN(c3nccc4c3CCO4)CC2)CC1 | 192 °C
29 | COc1cccc2c(=O)c3c(O)cc(OCC(S)CCl)cc3oc12 (stereo not given) | 125 °C
30 | CCc1cn(C2CC(O)C(CCCNC(=O)Cc3c(Cl)cccc3Cl)O2)c(=O)[nH]c1=O (stereo not given) | 227 to 229 °C
31 | Cc1ccccc1NC(=O)c1c(Cl)cccc1Cl | 182 °C
32 | O=C1c2ccccc2C(=O)c2sc(-c3cccc(F)c3)nc21 | > 260 °C
33 | Cc1nn(C)c(Cl)c1S(=O)(=O)Nc1ccc(Cl)cc1C(=O)Nc1ccc(S(=O)(=O)N2CCSCC2)cc1 | 215 to 216 °C
34 | Cc1oc(-c2ccc(F)cc2)nc1COc1cccc2cc(NS(=O)(=O)C(F)(F)F)ccc12 | 178 to 180 °C
35 | CCOC(=O)C(Oc1cccc2c1ccn2C(=O)OCc1ccccc1)C(=O)OCC | 77 to 78 °C
36 | CN1Cc2c(-c3noc(CCl)n3)ncn2-c2ccsc2C1=O | 221 to 223 °C
37 | CCc1ccc2[nH]c(=O)oc(=O)c2c1 | 178 to 181 °C
38 | CCCCNC(=O)[C@@H](C[C@H](O)[C@@H](N)CC1CCCCCC1)C(C)C | 81 to 82 °C
39 | CCC(=O)Oc1ccc(-c2oc3cc(OC)cc(OC(=O)CC)c3c(=O)c2OC)cc1OC | 106 to 107 °C
40 | O=C1O[C@H]2C[C@@H]1CC[C@@H]2I | 130 to 131 °C
41 | CC(Sc1nc(N)cc(Cl)n1)c1cc2ccoc2cn1 (stereo not given) | 187 to 188 °C
42 | CSc1ccc(Nc2nc(=O)cc(N)n2-c2ccc(C)cc2)cc1 | 231 to 234 °C
43 | C=CCc1ccc2oc(C=CC(=O)OCC)c(C)c2c1O | 125 to 127 °C
44 | CNc1nccc(-c2cc(NCCCNc3ncnc4[nH]nc(Br)c34)c3cc(OC)ccc3c2)n1 | 145 to 148 °C
45 | CN(Sc1ccc(C(C)(C)C)cc1)C(=O)Oc1cccc2c1OC(C)(C)C2 | 120 to 123 °C
46 | CC1(C)CCCNC1C(=O)O (stereo not given) | > 305 °C
47 | CC1(C)C(C=CC(=O)O)C1C(=O)OCc1ccccc1 (stereo not given) | 69 °C
48 | CCOC(=O)c1c(Cn2cncn2)nc2ccc(Cl)cc2c1-c1ccccc1 | 114 to 116 °C
49 | CCC(C)(CC)c1ccc(N)nn1 | 56 to 58 °C
50 | C=C1N(CC)C(=O)OC12CCN(CCC=C(c1ccc(F)cc1)c1ccc(F)cc1)CC2 | 138 to 139 °C

Row | SMILES | melting point
51 | N#CCCNC(=O)c1cccc(-c2cccc3nn(Cc4ccccc4)cc23)c1 | 143 to 144 °C
52 | O=C1Cc2c(Cl)cccc2Sc2ccccc21 | 122 to 125 °C
53 | COc1ccc(CN2C(CN3CCOCC3)=Cc3ccsc3S2(=O)=O)cc1 | 112 to 114 °C
54 | CCOc1nn(Cc2ccc(OCc3ccc(-c4ccccc4)nc3)cc2)cc1CCC(=O)O | 140 to 141 °C
55 | COc1ccc(CC(=O)N2C=CC(C)(C)C=C2)cc1OC | 86 to 89.5 °C
56 | COC(=O)CNC(=O)c1ccc(-c2ccccc2)cc1 | 127 to 128 °C
57 | CN(CC(=O)O)CC(=O)Nc1cc(Cc2n[nH]c(=O)c3ccccc23)ccc1F | 194 to 198 °C
58 | O=C(O)CNC(=O)c1nc2ccccc2cc1O | 191 °C
59 | COC(=O)Cc1ccccc1OCc1ccc(OCCc2nc(-c3ccccc3)oc2C)nc1 | 78 to 79 °C
60 | O=C(c1ccc(O)cc1)c1c(-c2ccc(O)cc2)sc2ccccc12 | 90 °C
61 | O=C(O)Cc1ccc2c(c1)NC(=O)CO2 | 237 to 239 °C
62 | CC=C(CC)c1nc(C)nc2c1c(C)c(C)n2-c1c(C)cc(C)cc1C | 59 to 61 °C
63 | c1ccc2nc(N3CCNCC3)ncc2c1 | 64 to 66 °C
64 | COc1cncc(-c2cccc(OC3SCC(OC(C)=O)C(OC(C)=O)C3OC(C)=O)c2)c1 (stereo not given) | 167 °C
65 | COCCN(CCOC)c1ccc(Nn2c(C)ccc2C)nn1 | 112 to 114 °C
66 | CCn1cc(C(=O)O)c(=O)c2cc(F)c(N3CCNC(c4cc(C)cs4)C3)cc21 (stereo not given) | 230 °C
67 | N#Cc1ccc(C(=O)O)c(Cl)c1 | 154 to 158 °C
68 | COc1cc(NC2=C(Cl)C(=O)c3ccccc3C2=O)ccc1S(=O)(=O)Nc1cccc(C)c1 | 286 to 288 °C
69 | CN1CCC2(CC1)c1ccccc1Cc1ccccc12 | 132 to 134 °C
70 | O=C(NC(Cc1ccc(C(F)(F)F)cc1)C(O)c1ccc(F)cc1)c1cccc(-c2ccccc2)c1 (stereo not given) | 165 to 166 °C
71 | O=C1c2ccccc2C(=O)N1CSc1ccncc1 | 133 to 134 °C
72 | CCOc1c(OC)cc(C)c(C(=O)c2c(OC)ccc(Cl)c2C)c1OC | 131 to 132 °C
73 | CCCCc1ccc(C(=O)CCCn2ccnc2)cc1 | 125 to 128 °C
74 | COc1ccc(N2CCC(c3cnc(N)nc3N)CC2)cc1 | 224 to 225 °C
75 | COC(=O)C(=O)c1ccc(OCCOc2ccc3ccccc3c2)cc1Cl | 123 to 125 °C

Row | SMILES | melting point
76 | COC(=O)c1ccc(N2CCN(C)CC2)cc1 | 117 to 119 °C
77 | O=C1c2ccccc2C(=O)c2c1nc1c(Cl)cccn21 | > 300 °C
78 | OCCCc1cn(C(c2ccccc2)(c2ccccc2)c2ccccc2)cn1 | 130 °C
79 | O=c1[nH]c(=O)n(C2CC(Cl)C(CBr)O2)cc1C=CBr (stereo not given) | 149 °C
80 | O=C(O)CCCCC=Cc1cccc(Cc2ccccc2)c1 | 68 °C
81 | COCOc1cc(F)ccc1-c1cc(-c2cccc(C(=O)OC)c2)c(C#N)c(N)n1 | 155 to 158 °C
82 | COc1ccc(C(=C(c2ccc(OC)cc2)C(F)(F)F)c2ccc(OCCN(C)C)cc2)cc1 | 77 to 79 °C
83 | O=Cc1cccc2c1sc1cc3ccccc3cc12 | 202 to 204 °C
84 | CCOC(=O)C1=Cc2cc(Cl)ccc2N(C)C1C(F)(F)F (stereo not given) | 118 to 120 °C
85 | CCOC(=O)C1=Cc2cc(OCC(=O)c3ccc(Br)cc3)ccc2OC1C(F)(F)F (stereo not given) | 130 to 132 °C
86 | CC1(C)CCC(=O)N(C2c3cc4nonc4cc3OC(C)(C)C2O)C1 (stereo not given) | 136 to 137 °C
87 | c1ccc2sc(SSN3CCCCCC3)nc2c1 | 65 to 67 °C
88 | COc1ccc2c(c1)C(c1ccc(OCCN(C(C)C)C(C)C)cc1)c1c-2ccc2ccccc12 (stereo not given) | 106 to 115 °C
89 | CCOC(=O)C1(C(=O)OCC)NC(=O)CC1c1ccccc1 (stereo not given) | 97 to 99 °C
90 | CC1=C(c2cccc(C(F)(F)F)c2)n2ncc3c(=O)[nH]c(=S)n(c32)C1 | 269 to 271 °C
91 | CNc1cc(N2CCCNCC2)ccc1S(=O)(=O)c1cccc(F)c1 | 153 to 154 °C
92 | COC(=O)/C(=C/c1ccc(OCCc2nc(-c3ccccc3)oc2C)c2ccsc12)OC | 165 °C
93 | FC(F)(F)c1[nH]c(-c2ccc(Cl)cc2)cc1-c1csc(Br)c1 | 112 to 115 °C
94 | O=C(O)c1nc2c(NCc3ccccc3)ncnc2n1C1OC(CO)C(O)C1O (stereo not given) | 125 to 127 °C
95 | CCCCCCCCCCSc1ccc(C(=O)O)cc1 | 108 to 109 °C
96 | CC(C)(C)COc1cccc(C[C@@H](NC(=O)c2ccc(F)c3ccccc23)[C@@H](O)c2cccc(Cl)c2)c1 (racemic) | 165 to 166 °C
97 | CN1CCN(c2ccc(-c3cnc4c(c3)N(S(=O)(=O)c3ccccc3Cl)CCN4)cn2)CC1 | 164 to 165 °C
98 | CN(c1ccccc1)S(=O)(=O)c1ccc(C=CC(C)(O)C(F)(F)F)cc1 (stereo not given) | 146 to 148 °C
99 | Cc1ccc(C(=O)NCc2ccc3c(c2)C(=O)N(C2CCC(=O)NC2=O)C3=O)cc1 (stereo not given) | 194 to 196 °C
100 | CS(=O)(=O)c1ccc(-c2c(-c3ccc(F)cc3)nn3c(-c4ccc(F)cc4)coc23)cc1 | 289 to 291 °C
